Values after ≈ are worked out from the molar mass of the structure shown.
Experiments:
Type in all cases: functional
Escherichia coli [1] = assay: Antimicrobial activity against Escherichia coli ATCC 25922 after 24 hrs by disk diffusion method
Candida albicans [2] = assay: Antimicrobial activity against Candida albicans ATCC 10231 after 24 to 48 hrs after 24 hrs by disk diffusion method
Klebsiella pneumoniae [3] = assay: Antimicrobial activity against Klebsiella pneumoniae RSHM 574 after 24 hrs by disk diffusion method
Staphylococcus aureus [4] = assay: Antimicrobial activity against Staphylococcus aureus ATCC 25923 after 24 hrs by disk diffusion method
Bacillus subtilis [5] = assay: Antimicrobial activity against Bacillus subtilis ATCC 6633 after 24 hrs by disk diffusion method
Escherichia coli [6] = assay: Antimicrobial activity against Escherichia coli isolate after 24 hrs by disk diffusion method
Candida albicans [7] = assay: Antimicrobial activity against Candida albicans isolate after 24 to 48 hrs after 24 hrs by disk diffusion method
Pseudomonas aeruginosa = assay: Antimicrobial activity against Pseudomonas aeruginosa ATCC […] after 24 hrs by disk diffusion method
Bacillus subtilis [8] = assay: Antimicrobial activity against Bacillus subtilis isolate after 24 hrs by disk diffusion method
Staphylococcus aureus [9] = assay: Antimicrobial activity against Staphylococcus aureus isolate after 24 hrs by disk diffusion method
Klebsiella pneumoniae [10] = assay: Antimicrobial activity against Klebsiella pneumoniae after 24 hrs by disk diffusion method

Compound	MIC (Escherichia coli [1]; ATCC 25922, 24 h) [µg/mL]	MIC (Candida albicans [2]) [µg/mL]	MIC (Klebsiella pneumoniae [3]) [µg/mL]	MIC (Staphylococcus aureus [4]; ATCC 25923, 24 h) [µg/mL]	MIC (Bacillus subtilis [5]; ATCC 6633, 24 h) [µg/mL]	MIC (Escherichia coli [6]) [µg/mL]	MIC (Candida albicans [7]) [µg/mL]	MIC (Pseudomonas aeruginosa; ATCC 25853, 24 h) [µg/mL]	MIC (Bacillus subtilis [8]) [µg/mL]	MIC (Staphylococcus aureus [9]) [µg/mL]	MIC (Klebsiella pneumoniae [10]) [µg/mL]	MIC (Escherichia coli [1]) [µg/mL]	MIC (Staphylococcus aureus [4]) [µg/mL]	MIC (Bacillus subtilis [5]) [µg/mL]	MIC (Pseudomonas aeruginosa) [µg/mL]
CCS(=O)(=O)c1ccc2oc(-c3cccc(C)c3C)nc2c1	62.5 (≈ 198 µM)	31.2 (≈ 99.1 µM)	31.2 (≈ 99.1 µM)	125 (≈ 396 µM)	15.6 (≈ 49.5 µM)	250 (≈ 793 µM)	62.5 (≈ 198 µM)	62.5 (≈ 198 µM)	31.2 (≈ 99.1 µM)	125 (≈ 396 µM)	125 (≈ 396 µM)				
CC1COc2c(N3CCN(C)CC3)c(F)cc3c(=O)c(C(=O)O)cn1c23 (configuration not stated) [OFLOXACIN]	0.125 (≈ 0.346 µM)		0.25 (≈ 0.692 µM)	0.25 (≈ 0.692 µM)	0.125 (≈ 0.346 µM)	32 (≈ 88.6 µM)		8 (≈ 22.1 µM)	32 (≈ 88.6 µM)	2 (≈ 5.53 µM)	64 (≈ 177 µM)				
CCS(=O)(=O)c1ccc2oc(Cc3ccc(C)cc3)nc2c1	62.5 (≈ 198 µM)	62.5 (≈ 198 µM)	62.5 (≈ 198 µM)	125 (≈ 396 µM)	31.2 (≈ 99.1 µM)	125 (≈ 396 µM)	62.5 (≈ 198 µM)	62.5 (≈ 198 µM)	31.2 (≈ 99.1 µM)	125 (≈ 396 µM)	125 (≈ 396 µM)				
CCS(=O)(=O)c1ccc2oc(-c3ccc(Cl)cc3)nc2c1	62.5 (≈ 194 µM)	125 (≈ 388 µM)	62.5 (≈ 194 µM)	125 (≈ 388 µM)	7.81 (≈ 24.3 µM)	62.5 (≈ 194 µM)	15.6 (≈ 48.5 µM)	62.5 (≈ 194 µM)	31.2 (≈ 97.1 µM)	125 (≈ 388 µM)	125 (≈ 388 µM)				
CCS(=O)(=O)c1ccc2oc(Cc3ccccc3Cl)nc2c1	62.5 (≈ 186 µM)	62.5 (≈ 186 µM)	31.2 (≈ 93.1 µM)	125 (≈ 372 µM)	62.5 (≈ 186 µM)	125 (≈ 372 µM)	62.5 (≈ 186 µM)	62.5 (≈ 186 µM)	31.2 (≈ 93.1 µM)	125 (≈ 372 µM)	125 (≈ 372 µM)				
C[C@@H]1[C@H](O)[C@@H](C)/C=C/C=C/C=C/C=C/C=C/C=C/C=C/[C@H](O[C@@H]2O[C@H](C)[C@@H](O)[C@H](N)[C@@H]2O)C[C@@H]2O[C@](O)(C[C@@H](O)C[C@@H](O)[C@H](O)CC[C@@H](O)C[C@@H](O)CC(=O)O[C@H]1C)C[C@H](O)[C@H]2C(=O)O [AMPHOTERICIN B]		1 (≈ 1.08 µM)					1 (≈ 1.08 µM)								
CCS(=O)(=O)c1ccc2oc(Cc3ccc(Cl)cc3)nc2c1	62.5 (≈ 186 µM)	31.2 (≈ 93.1 µM)	62.5 (≈ 186 µM)	125 (≈ 372 µM)	31.2 (≈ 93.1 µM)	125 (≈ 372 µM)	62.5 (≈ 186 µM)	62.5 (≈ 186 µM)	15.6 (≈ 46.5 µM)	125 (≈ 372 µM)	125 (≈ 372 µM)				
CCS(=O)(=O)c1ccc2oc(-c3ccc(C)cc3)nc2c1	62.5 (≈ 207 µM)	125 (≈ 415 µM)	62.5 (≈ 207 µM)	125 (≈ 415 µM)	31.2 (≈ 104 µM)	62.5 (≈ 207 µM)	31.2 (≈ 104 µM)	62.5 (≈ 207 µM)	31.2 (≈ 104 µM)	125 (≈ 415 µM)	31.2 (≈ 104 µM)				
CCS(=O)(=O)c1ccc2oc(-c3ccc(F)cc3)nc2c1	62.5 (≈ 205 µM)	125 (≈ 409 µM)	31.2 (≈ 102 µM)	125 (≈ 409 µM)	31.2 (≈ 102 µM)	62.5 (≈ 205 µM)	31.2 (≈ 102 µM)	62.5 (≈ 205 µM)	31.2 (≈ 102 µM)	125 (≈ 409 µM)	125 (≈ 409 µM)				
CCS(=O)(=O)c1ccc2oc(CCc3ccccc3)nc2c1	62.5 (≈ 198 µM)	62.5 (≈ 198 µM)	31.2 (≈ 99.1 µM)	125 (≈ 396 µM)	62.5 (≈ 198 µM)	125 (≈ 396 µM)	62.5 (≈ 198 µM)	62.5 (≈ 198 µM)	31.2 (≈ 99.1 µM)	125 (≈ 396 µM)	125 (≈ 396 µM)				
CCS(=O)(=O)c1ccc2oc(-c3ccccc3Cl)nc2c1	62.5 (≈ 194 µM)	31.2 (≈ 97.1 µM)	31.2 (≈ 97.1 µM)	125 (≈ 388 µM)	15.6 (≈ 48.5 µM)	125 (≈ 388 µM)	62.5 (≈ 194 µM)	62.5 (≈ 194 µM)	31.2 (≈ 97.1 µM)	125 (≈ 388 µM)	125 (≈ 388 µM)				
CCS(=O)(=O)c1ccc2oc(-c3cc(Br)ccc3Cl)nc2c1	62.5 (≈ 156 µM)	62.5 (≈ 156 µM)	62.5 (≈ 156 µM)	125 (≈ 312 µM)	62.5 (≈ 156 µM)	125 (≈ 312 µM)	62.5 (≈ 156 µM)	62.5 (≈ 156 µM)	31.2 (≈ 78 µM)	125 (≈ 312 µM)	125 (≈ 312 µM)				
CCS(=O)(=O)c1ccc2oc(-c3ccc(C(C)(C)C)cc3)nc2c1	62.5 (≈ 182 µM)	125 (≈ 364 µM)	62.5 (≈ 182 µM)	125 (≈ 364 µM)	7.81 (≈ 22.7 µM)	62.5 (≈ 182 µM)	31.2 (≈ 91 µM)	62.5 (≈ 182 µM)	15.6 (≈ 45.5 µM)	125 (≈ 364 µM)	250 (≈ 728 µM)				
OC(Cn1cncn1)(Cn1cncn1)c1ccc(F)cc1F [FLUCONAZOLE]		1 (≈ 3.27 µM)					64 (≈ 209 µM)								
CC1(C)S[C@@H]2[C@H](NC(=O)[C@H](N)c3ccccc3)C(=O)N2[C@H]1C(=O)O.O.O.O [AMPICILLIN TRIHYDRATE]	8		2	0.03	0.25	256		4100	8	2	256				
GENTAMICIN SULFATE			8			1			512	1020	64	0.5	0.06	1	2
